Assay results published in ChEMBL document CHEMBL1201862, “PubChem BioAssay data set” (2004).
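Exposure lasted 48 hours, with cells grown in 96-well plates and compounds tested at five concentrations. Abbreviation: GI50, concentration required for 50% inhibition of growth.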 The source made the active and inactive calls. No stated cut-off is given here; in the data, active = GI50 up to about 1.1 µM and inactive = higher. Non-standard residues stand in square brackets, D forms with d. Residues, ends and D or L forms follow the SMILES beside them. ξ: configuration not given here. *: point of attachment. Cbz = O=C(OCc1ccccc1)*; ξK = NCCCCC(N)C(=O)O

Experiments:
Test in all cases: NCI-60 cell line screen, 48 h
[1] = system: A498
[2] = system: A549
[3] = system: ACHN
[4] = system: COLO 205
[5] = system: HCT-116
[6] = system: HOP-62
[7] = system: Hs-578T
[8] = system: KM12
[9] = system: MDA-MB-435
[10] = system: Malme-3M
[11] = system: OVCAR-3
[12] = system: OVCAR-4
[13] = system: RXF 393
[14] = system: SF-539
[15] = system: SK-OV-3
[16] = system: SN12C
[17] = system: SR
[18] = system: T47D
[19] = system: UACC-257
[20] = system: UO-31

Row | SMILES | GI50 [1] | GI50 [2] | GI50 [3] | GI50 [4] | GI50 [5] | GI50 [6] | GI50 [7] | GI50 [8] | GI50 [9] | GI50 [10] | GI50 [11] | GI50 [12] | GI50 [13] | GI50 [14] | GI50 [15] | GI50 [16] | GI50 [17] | GI50 [18] | GI50 [19] | GI50 [20]
1 | CCC1(OC(=O)CN2CCN(CCO)CC2)C(=O)OCc2c1cc1n(c2=O)Cc2cc3ccccc3nc2-1 (stereo not given) | 0.514 µM (active) | 0.307 µM (active) | 0.0667 µM (active) | 2.04 µM (inactive) | 0.417 µM (active) | 0.0867 µM (active) | 14 µM (inactive) | 0.457 µM (active) | 1.15 µM (inactive) | 1.95 µM (inactive) | 1.96 µM (inactive) | 1.77 µM (inactive) | 0.593 µM (active) | 0.188 µM (active) | 1.17 µM (inactive) | 0.125 µM (active) | 0.0221 µM (active) | 0.212 µM (active) | 0.771 µM (active) | 0.169 µM (active)
2 | CC(C)=C[C@@H]1O[C@H](O)[C@@H]([C@H]2CC[C@@]3(C)[C@@H]4CC[C@H]5C(C)(C)C(=O)CC[C@@]56C[C@@]46CC[C@]23C)[C@@H]1O | 18.3 µM (inactive) | 14.4 µM (inactive) | 18.1 µM (inactive) | 20.1 µM (inactive) | 15.2 µM (inactive) | 23.7 µM (inactive) | 21.2 µM (inactive) | 18.1 µM (inactive) | 17.7 µM (inactive) | 16.8 µM (inactive) | 13.2 µM (inactive) | 18.1 µM (inactive) | 12.7 µM (inactive) | 12.4 µM (inactive) | 16.5 µM (inactive) | 19.3 µM (inactive) | 9.64 µM (inactive) | 14.6 µM (inactive) | 16.7 µM (inactive) | 15.3 µM (inactive)
3 | CC(C)[C@@H]1CC[C@@H](C)C[C@H]1OC(=O)/C=C1/C2C=CC(O2)C1C(=O)O[C@@H]1C[C@H](C)CC[C@H]1C(C)C (stereo not given in full) | > 100 µM (inactive) | > 100 µM (inactive) | > 100 µM (inactive) | > 100 µM (inactive) | > 100 µM (inactive) | > 100 µM (inactive) | > 100 µM (inactive) | > 100 µM (inactive) | > 100 µM (inactive) | > 100 µM (inactive) | > 100 µM (inactive) | > 100 µM (inactive) | > 100 µM (inactive) | > 100 µM (inactive) | > 100 µM (inactive) | > 100 µM (inactive) | 41.7 µM (inactive) | 45.3 µM (inactive) | 46.2 µM (inactive) | > 100 µM (inactive)
4 | O=C(O)c1ccc(C(=O)c2ccccc2)c(C(=O)O)c1 | > 100 µM (inactive) | > 100 µM (inactive) | > 100 µM (inactive) | > 100 µM (inactive) | > 100 µM (inactive) | > 100 µM (inactive) | > 100 µM (inactive) | > 100 µM (inactive) | > 100 µM (inactive) | > 100 µM (inactive) | > 100 µM (inactive) | > 100 µM (inactive) | > 100 µM (inactive) | > 100 µM (inactive) | > 100 µM (inactive) | > 100 µM (inactive) | > 100 µM (inactive) | > 100 µM (inactive) | > 100 µM (inactive) | > 100 µM (inactive)
5 | CC(=O)NC1C(OCc2ccccc2)OC(CO)C(O)C1OC(C)C(=O)N[C@@H](C)C(=O)N[C@H](CCC(=O)NCCNCCNc1c2ccccc2nc2cccc([N+](=O)[O-])c12)C(N)=O (stereo not given in full) | 0.137 µM (active) | 0.0244 µM (active) | 0.0557 µM (active) | < 0.0112 µM (active) | 0.0214 µM (active) | 0.192 µM (active) | 0.356 µM (active) | 0.0783 µM (active) | 0.0389 µM (active) | 0.043 µM (active) | 0.226 µM (active) | 0.0228 µM (active) | 0.0169 µM (active) | 0.0982 µM (active) | 0.348 µM (active) | 0.104 µM (active) | 0.0794 µM (active) | 0.0461 µM (active) | 0.108 µM (active) | 0.24 µM (active)
6 | NCCCCC(NC(=O)OCc1ccccc1)C(=O)NCC(N)=O (stereo not given) (Cbz-[ξK]-Gly-NH2) | > 100 µM (inactive) | > 100 µM (inactive) | > 100 µM (inactive) | > 100 µM (inactive) | > 100 µM (inactive) | > 100 µM (inactive) | > 100 µM (inactive) | > 100 µM (inactive) | > 100 µM (inactive) | > 100 µM (inactive) | > 100 µM (inactive) | > 100 µM (inactive) | > 100 µM (inactive) | > 100 µM (inactive) | > 100 µM (inactive) | > 100 µM (inactive) | > 100 µM (inactive) | > 100 µM (inactive) | > 100 µM (inactive) | > 100 µM (inactive)
